Test results as given in the kinase profiling compilation of Christmann-Franck et al. (2016).
“And” between values parts separate entries of the source, which are not always exact repeats. Identical values can stand only once.

Columns and labels:
Experiment in all cases: radiometric filter-binding kinase assay, Kinase HotSpot
Details in all cases: compound 0.5 µM; ATP 10 µM
ABL2 (human) = ABL2 (human) (UniProt P42684)
ADRBK1 (human) = ADRBK1 (human) (UniProt P25098)
ADRBK2 (human) = ADRBK2 (human) (UniProt P35626)
BRAF (human) = BRAF (human) (UniProt P15056)
CAMK1D (human) = CAMK1D (human) (UniProt Q8IU85)
CAMKK2 (human) = CAMKK2 (human) (UniProt Q96RR4)
CDC42BPA (human) = CDC42BPA (human) (UniProt Q5VT25)
CHEK1 (human) = CHEK1 (human) (UniProt O14757)
DAPK2 (human) = DAPK2 (human) (UniProt Q9UIK4)
DSTYK (human) = DSTYK (human) (UniProt Q6XUX3)
DYRK1B (human) = DYRK1B (human) (UniProt Q9Y463)
EGFR (human) = EGFR (human) (UniProt P00533)
EPHB4 (human) = EPHB4 (human) (UniProt P54760)
ERBB2 (human) = ERBB2 (human) (UniProt P04626)
FGR (human) = FGR (human) (UniProt P09769)
INSR (human) = INSR (human) (UniProt P06213)
JAK2 JH1 JH2 (human) = JAK2 JH1 JH2 (human) (UniProt O60674)
LCK (human) = LCK (human) (UniProt P06239)
LYN (human) = LYN (human) (UniProt P07948)
MAP3K10 (human) = MAP3K10 (human) (UniProt Q02779)
NTRK2 (human) = NTRK2 (human) (UniProt Q16620)
NUAK1 (human) = NUAK1 (human) (UniProt O60285)
OXSR1 (human) = OXSR1 (human) (UniProt O95747)
PAK7 (human) = PAK7 (human) (UniProt Q9P286)
PIM3 (human) = PIM3 (human) (UniProt Q86V86)
PLK3 (human) = PLK3 (human) (UniProt Q9H4B4)
PRKG1 (human) = PRKG1 (human) (UniProt Q13976)
RPS6KA1 KD1 KD2 (human) = RPS6KA1 KD1 KD2 (human) (UniProt Q15418)
RPS6KA4 KD2 (human) = RPS6KA4 KD2 (human) (UniProt O75676)
SRMS (human) = SRMS (human) (UniProt Q9H3Y6)
STK25 (human) = STK25 (human) (UniProt O00506)
TAOK1 (human) = TAOK1 (human) (UniProt Q7L7X3)
TYRO3 (human) = TYRO3 (human) (UniProt Q06418)
ULK2 (human) = ULK2 (human) (UniProt Q8IYT8)
WEE1 (human) = WEE1 (human) (UniProt P30291)
YES1 (human) = YES1 (human) (UniProt P07947)
Sequence of YES1 (human) (P07947 whole entry, looked up): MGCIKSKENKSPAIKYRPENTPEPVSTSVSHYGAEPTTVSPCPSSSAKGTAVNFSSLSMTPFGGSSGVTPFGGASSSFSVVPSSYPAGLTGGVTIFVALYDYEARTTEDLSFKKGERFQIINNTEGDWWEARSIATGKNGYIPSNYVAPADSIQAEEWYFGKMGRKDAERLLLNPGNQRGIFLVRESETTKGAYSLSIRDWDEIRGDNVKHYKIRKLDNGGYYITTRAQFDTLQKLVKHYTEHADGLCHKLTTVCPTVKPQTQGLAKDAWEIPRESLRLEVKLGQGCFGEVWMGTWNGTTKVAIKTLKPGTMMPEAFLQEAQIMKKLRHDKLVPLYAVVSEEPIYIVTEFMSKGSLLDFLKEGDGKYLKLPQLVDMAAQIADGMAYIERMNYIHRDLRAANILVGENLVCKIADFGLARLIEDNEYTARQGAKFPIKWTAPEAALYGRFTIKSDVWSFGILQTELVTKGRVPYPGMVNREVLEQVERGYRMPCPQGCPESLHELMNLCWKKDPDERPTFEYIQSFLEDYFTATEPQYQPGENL

Sequence of LYN (human) (P07948 whole entry, looked up): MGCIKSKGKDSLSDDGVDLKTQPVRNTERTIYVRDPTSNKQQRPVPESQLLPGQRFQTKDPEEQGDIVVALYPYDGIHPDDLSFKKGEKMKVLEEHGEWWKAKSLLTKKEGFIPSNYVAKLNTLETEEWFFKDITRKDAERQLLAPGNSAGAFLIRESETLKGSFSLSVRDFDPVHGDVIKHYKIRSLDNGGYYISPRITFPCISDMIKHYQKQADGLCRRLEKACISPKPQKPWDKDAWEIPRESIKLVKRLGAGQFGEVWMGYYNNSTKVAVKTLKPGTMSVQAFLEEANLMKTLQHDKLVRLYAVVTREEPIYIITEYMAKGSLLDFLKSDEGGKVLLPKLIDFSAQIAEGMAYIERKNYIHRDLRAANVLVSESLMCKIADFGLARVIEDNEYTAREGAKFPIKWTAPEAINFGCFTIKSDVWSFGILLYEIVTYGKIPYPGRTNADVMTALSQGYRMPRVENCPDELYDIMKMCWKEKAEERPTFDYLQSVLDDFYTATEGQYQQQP
Sequence of PRKG1 (human) (Q13976 whole entry, looked up): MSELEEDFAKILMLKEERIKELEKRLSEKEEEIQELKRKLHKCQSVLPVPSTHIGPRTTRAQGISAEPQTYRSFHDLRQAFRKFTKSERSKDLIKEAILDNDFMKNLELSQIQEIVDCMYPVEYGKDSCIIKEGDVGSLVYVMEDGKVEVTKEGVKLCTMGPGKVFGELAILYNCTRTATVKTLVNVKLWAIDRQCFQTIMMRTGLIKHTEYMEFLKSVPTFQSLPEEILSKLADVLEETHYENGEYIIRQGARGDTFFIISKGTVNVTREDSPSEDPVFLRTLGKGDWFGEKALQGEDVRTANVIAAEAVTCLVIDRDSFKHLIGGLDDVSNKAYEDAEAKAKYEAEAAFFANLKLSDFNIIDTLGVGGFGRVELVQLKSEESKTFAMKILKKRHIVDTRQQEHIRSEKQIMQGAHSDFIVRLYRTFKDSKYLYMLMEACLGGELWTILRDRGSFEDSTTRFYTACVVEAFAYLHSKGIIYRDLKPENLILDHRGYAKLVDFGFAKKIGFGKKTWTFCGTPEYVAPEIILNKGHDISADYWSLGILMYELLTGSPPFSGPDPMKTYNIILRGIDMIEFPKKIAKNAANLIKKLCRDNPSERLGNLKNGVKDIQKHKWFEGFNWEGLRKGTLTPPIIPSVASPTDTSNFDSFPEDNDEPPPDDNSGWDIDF
Sequence of TYRO3 (human) (Q06418 whole entry, looked up): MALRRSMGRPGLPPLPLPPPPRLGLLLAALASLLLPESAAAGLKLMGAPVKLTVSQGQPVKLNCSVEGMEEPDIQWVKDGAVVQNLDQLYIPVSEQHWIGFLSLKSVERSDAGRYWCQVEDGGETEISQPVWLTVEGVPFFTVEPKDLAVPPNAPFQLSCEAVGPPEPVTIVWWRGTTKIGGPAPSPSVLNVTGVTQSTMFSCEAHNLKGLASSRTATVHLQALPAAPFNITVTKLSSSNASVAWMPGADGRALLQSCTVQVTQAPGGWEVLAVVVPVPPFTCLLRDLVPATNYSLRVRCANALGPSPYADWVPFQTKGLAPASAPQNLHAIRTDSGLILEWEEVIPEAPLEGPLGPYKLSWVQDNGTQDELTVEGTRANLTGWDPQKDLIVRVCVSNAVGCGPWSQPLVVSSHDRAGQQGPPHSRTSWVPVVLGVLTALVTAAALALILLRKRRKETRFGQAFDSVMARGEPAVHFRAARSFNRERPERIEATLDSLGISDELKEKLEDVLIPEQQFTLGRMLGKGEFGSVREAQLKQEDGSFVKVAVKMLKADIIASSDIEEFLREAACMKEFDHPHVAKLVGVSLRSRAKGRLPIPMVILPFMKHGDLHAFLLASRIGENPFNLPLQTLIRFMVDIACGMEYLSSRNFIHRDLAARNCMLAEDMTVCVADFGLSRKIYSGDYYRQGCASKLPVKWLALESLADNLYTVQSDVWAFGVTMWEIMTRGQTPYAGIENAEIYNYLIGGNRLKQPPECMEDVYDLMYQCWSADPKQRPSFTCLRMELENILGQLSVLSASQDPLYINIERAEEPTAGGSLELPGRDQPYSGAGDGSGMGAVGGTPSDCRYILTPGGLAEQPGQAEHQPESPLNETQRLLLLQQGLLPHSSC
Sequence of LCK (human) (P06239 whole entry, looked up): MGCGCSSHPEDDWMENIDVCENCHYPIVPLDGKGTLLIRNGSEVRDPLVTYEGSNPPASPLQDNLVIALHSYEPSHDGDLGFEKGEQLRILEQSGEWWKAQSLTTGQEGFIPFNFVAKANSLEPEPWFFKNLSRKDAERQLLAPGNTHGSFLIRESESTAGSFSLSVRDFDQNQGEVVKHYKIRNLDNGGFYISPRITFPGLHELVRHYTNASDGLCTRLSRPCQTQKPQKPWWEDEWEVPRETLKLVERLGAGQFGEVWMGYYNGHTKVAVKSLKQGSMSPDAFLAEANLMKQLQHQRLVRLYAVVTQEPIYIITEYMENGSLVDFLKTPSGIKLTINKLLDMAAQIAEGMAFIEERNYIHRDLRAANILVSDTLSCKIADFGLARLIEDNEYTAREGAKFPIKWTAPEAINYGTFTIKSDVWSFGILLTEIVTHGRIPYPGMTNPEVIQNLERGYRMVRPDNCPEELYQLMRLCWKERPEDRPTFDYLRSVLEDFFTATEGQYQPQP
Sequence of OXSR1 (human) (O95747 whole entry, looked up): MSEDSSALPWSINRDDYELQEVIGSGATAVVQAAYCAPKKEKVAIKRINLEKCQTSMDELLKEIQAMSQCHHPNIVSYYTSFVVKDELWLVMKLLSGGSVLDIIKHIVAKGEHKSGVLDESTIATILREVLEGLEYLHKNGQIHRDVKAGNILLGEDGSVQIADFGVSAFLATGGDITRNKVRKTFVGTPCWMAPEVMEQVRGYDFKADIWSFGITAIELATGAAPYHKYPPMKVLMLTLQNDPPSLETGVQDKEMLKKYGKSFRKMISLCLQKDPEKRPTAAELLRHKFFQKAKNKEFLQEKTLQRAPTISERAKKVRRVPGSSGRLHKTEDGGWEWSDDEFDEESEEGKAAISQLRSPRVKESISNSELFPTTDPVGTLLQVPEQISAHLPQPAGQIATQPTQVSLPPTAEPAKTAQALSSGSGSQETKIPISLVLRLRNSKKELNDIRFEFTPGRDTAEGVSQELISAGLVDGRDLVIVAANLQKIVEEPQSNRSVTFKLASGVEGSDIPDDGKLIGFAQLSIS
Sequence of NUAK1 (human) (O60285 whole entry, looked up): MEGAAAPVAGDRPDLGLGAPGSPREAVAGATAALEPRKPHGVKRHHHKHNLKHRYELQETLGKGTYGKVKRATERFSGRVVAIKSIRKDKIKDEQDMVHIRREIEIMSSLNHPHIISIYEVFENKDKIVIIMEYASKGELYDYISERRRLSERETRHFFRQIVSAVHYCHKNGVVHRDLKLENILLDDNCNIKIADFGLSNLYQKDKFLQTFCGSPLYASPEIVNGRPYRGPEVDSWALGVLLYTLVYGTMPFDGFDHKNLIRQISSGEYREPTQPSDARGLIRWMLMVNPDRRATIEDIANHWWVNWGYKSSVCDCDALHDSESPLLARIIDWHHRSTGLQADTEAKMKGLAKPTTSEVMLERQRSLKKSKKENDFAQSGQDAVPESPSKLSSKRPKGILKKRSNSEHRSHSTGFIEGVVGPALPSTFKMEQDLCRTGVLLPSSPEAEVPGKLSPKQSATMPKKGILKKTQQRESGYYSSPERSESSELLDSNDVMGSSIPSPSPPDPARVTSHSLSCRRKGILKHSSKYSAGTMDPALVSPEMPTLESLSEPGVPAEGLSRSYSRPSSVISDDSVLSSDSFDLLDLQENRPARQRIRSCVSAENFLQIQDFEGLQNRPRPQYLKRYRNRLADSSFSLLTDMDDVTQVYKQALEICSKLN
Sequence of CHEK1 (human) (O14757 whole entry, looked up): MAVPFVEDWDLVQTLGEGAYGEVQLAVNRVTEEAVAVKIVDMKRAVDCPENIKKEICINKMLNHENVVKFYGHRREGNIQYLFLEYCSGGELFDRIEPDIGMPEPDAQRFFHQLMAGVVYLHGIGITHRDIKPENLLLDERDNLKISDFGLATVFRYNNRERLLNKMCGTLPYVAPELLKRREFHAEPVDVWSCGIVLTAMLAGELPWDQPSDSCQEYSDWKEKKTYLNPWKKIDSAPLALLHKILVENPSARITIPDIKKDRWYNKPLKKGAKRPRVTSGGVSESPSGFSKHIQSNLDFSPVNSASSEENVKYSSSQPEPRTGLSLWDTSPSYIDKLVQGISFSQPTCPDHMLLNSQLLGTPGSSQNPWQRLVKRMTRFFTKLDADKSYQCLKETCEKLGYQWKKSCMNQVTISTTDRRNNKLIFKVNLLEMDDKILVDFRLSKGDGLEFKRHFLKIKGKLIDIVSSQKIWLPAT

Compound	residual activity (ABL2 (human)) [%]	residual activity (ADRBK1 (human)) [%]	residual activity (ADRBK2 (human)) [%]	residual activity (BRAF (human)) [%]	residual activity (CAMK1D (human)) [%]	residual activity (CAMKK2 (human)) [%]	residual activity (CDC42BPA (human)) [%]	residual activity (CHEK1 (human)) [%]	residual activity (DAPK2 (human)) [%]	residual activity (DSTYK (human)) [%]	residual activity (DYRK1B (human)) [%]	residual activity (EGFR (human)) [%]	residual activity (EPHB4 (human)) [%]	residual activity (ERBB2 (human)) [%]	residual activity (FGR (human)) [%]	residual activity (INSR (human)) [%]	residual activity (JAK2 JH1 JH2 (human)) [%]	residual activity (LCK (human)) [%]	residual activity (LYN (human))	residual activity (MAP3K10 (human)) [%]	other results
Cc1cc(Nc2nc(-c3ccccc3)nc3ccccc23)n[nH]1	42.5	106	106	99.5	85.4	88.6	108	69.1	89.5	86	90.8	97.4	91.1	108	54.8	31.6	52.6	75.6	79.9% and 88.7%	75.4	residual activity (NTRK2 (human)): 4.37%; residual activity (NUAK1 (human)): 3.88%; residual activity (OXSR1 (human)): 98.1%; residual activity (PAK7 (human)): 53.1%; residual activity (PIM3 (human)): 130%; residual activity (PLK3 (human)): 88.3%; residual activity (PRKG1 (human)): 94.9% and 97.3%; residual activity (RPS6KA1 KD1 KD2 (human)): 58%; residual activity (RPS6KA4 KD2 (human)): 108%; residual activity (SRMS (human)): 98.7%; residual activity (STK25 (human)): 86.7%; residual activity (TAOK1 (human)): 115%; residual activity (TYRO3 (human)): 94.2%; residual activity (ULK2 (human)): 95.1%; residual activity (WEE1 (human)): 88%; residual activity (YES1 (human)): 20.4%
CCOc1cc2ncnc(Nc3cccc(Br)c3)c2cc1OCC	52.1	95.4	93.8	97.1	102	101	85.4	115	103	101	103	2.02	43	13.8	61.9	98.7	99	52.9	32.1% and 49.5%	93.2	residual activity (NTRK2 (human)): 105%; residual activity (NUAK1 (human)): 94%; residual activity (OXSR1 (human)): 102%; residual activity (PAK7 (human)): 99.1%; residual activity (PIM3 (human)): 105%; residual activity (PLK3 (human)): 97.1%; residual activity (PRKG1 (human)): 96% and 96.7%; residual activity (RPS6KA1 KD1 KD2 (human)): 82.8%; residual activity (RPS6KA4 KD2 (human)): 95.4%; residual activity (SRMS (human)): 85.7%; residual activity (STK25 (human)): 90.1%; residual activity (TAOK1 (human)): 99.9%; residual activity (TYRO3 (human)): 92.2%; residual activity (ULK2 (human)): 82.8%; residual activity (WEE1 (human)): 97.9%; residual activity (YES1 (human)): 43.2%
